Measured values: PubChem BioAssay (NCI)
Several values for one entry are separate records, joined by “and”; a condition that tells them apart may be missing. Equal entries are not always repeated.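 Five compound concentrations were applied to cells in 96-well plates for 48 hours; endpoints were derived by simple linear interpolation of the resulting dose-response curve. GI50 marks 50% less growth. At the TGI there is no net growth.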

What was measured:
Experiment in all cases: NCI anticancer screen, dose series, 48 h
SF-295 CNS = test system: SF-295 CNS
RXF 393 renal = test system: RXF 393 renal
BT-549 breast = test system: BT-549 breast
OVCAR-3 ovarian = test system: OVCAR-3 ovarian
CAKI-1 renal = test system: CAKI-1 renal
NCI-H522 lung = test system: NCI-H522 lung
SK-MEL-2 melanoma = test system: SK-MEL-2 melanoma
SR leukemia = test system: SR leukemia
SK-MEL-5 melanoma = test system: SK-MEL-5 melanoma
NCI-H23 lung = test system: NCI-H23 lung

Structure (SMILES) | GI50 (SF-295 CNS) | TGI (SF-295 CNS) | GI50 (RXF 393 renal) | TGI (RXF 393 renal) | GI50 (BT-549 breast) | TGI (BT-549 breast) | GI50 (OVCAR-3 ovarian) | TGI (OVCAR-3 ovarian) | GI50 (CAKI-1 renal) | TGI (CAKI-1 renal) | GI50 (NCI-H522 lung) | TGI (NCI-H522 lung) | GI50 (SK-MEL-2 melanoma) | TGI (SK-MEL-2 melanoma) | GI50 (SR leukemia) | TGI (SR leukemia) | GI50 (SK-MEL-5 melanoma) | TGI (SK-MEL-5 melanoma) | GI50 (NCI-H23 lung) | TGI (NCI-H23 lung)
Cc1cc(O)c(C2=NN(c3ccc(S(N)(=O)=O)cc3)C(c3ccccc3O)C2)cc1Cl (stereo not given) | 1.68 µM | 3.5 µM | 2.05 µM | 5.78 µM | 2.08 µM | 6.11 µM | 2.61 µM | 7.62 µM | 1.67 µM | 4.12 µM | 1.91 µM | 4.72 µM | 4.85 µM | 11.6 µM | 2.22 µM | 26.7 µM | 5.6 µM | 18.2 µM | 2 µM | 4.38 µM
C=CCC(N[C@@H](CO)c1ccccc1)c1ccccn1 (stereo not given in full) | > 100 µM | > 100 µM | > 100 µM | > 100 µM | > 100 µM | > 100 µM | > 100 µM | > 100 µM | > 100 µM | > 100 µM | 25.8 µM | > 100 µM | > 100 µM | > 100 µM | 18.3 µM | > 100 µM | 56.9 µM | > 100 µM | 60.2 µM | > 100 µM
COc1ccccc1-c1ccc2nc(NC(=O)Nc3cc(C(F)(F)F)cc(C(F)(F)F)c3)sc2c1 | 2.64 µM | 9.33 µM | 2.19 µM | 6.18 µM | 1.62 µM | 3.72 µM | 1.58 µM | 4.58 µM | 2.33 µM | 6.35 µM | 1.76 µM | 9.35 µM | 2.09 µM | 6.09 µM | 1.76 µM | 5.25 µM | 1.57 µM | 2.98 µM | 2.02 µM | 7.09 µM
COc1cccc2c1nc1cccc(OC)c1[n+]2[O-] | 2.11 µM | 7.96 µM | 4.36 µM | 22.1 µM | 5.94 µM | 28.2 µM | 15.7 µM | 39.2 µM | 2.44 µM | 10.4 µM | 3.98 µM | 18.1 µM | 5.44 µM | 18.4 µM | 0.568 µM | 4.17 µM | 6.96 µM | 20 µM | 2.56 µM | 18.9 µM
CN(C)c1ccc(/C=C/c2ccnc3ccc4ccccc4c23)cc1 | – | – | – | 44.9 µM | – | > 100 µM | – | > 100 µM | – | > 100 µM | – | > 100 µM | – | > 100 µM | – | > 100 µM | – | > 100 µM | – | > 100 µM
COc1ccc(-c2ccc3ncc4c(c3c2)n(-c2ccc(N3CCNCC3)c(C(F)(F)F)c2)c(=O)n4C)cn1 | < 0.01 µM and 0.00331 µM | 0.0284 µM and 0.032 µM | < 0.01 µM and 0.0018 µM | < 0.0323 µM and 0.00977 µM | < 0.01 µM and 0.00552 µM | 0.0556 µM and 0.0647 µM | < 0.01 µM and 0.00596 µM | 0.341 µM and 0.497 µM | 0.0179 µM and 0.0119 µM | 0.884 µM and 0.118 µM | < 0.01 µM and 0.00669 µM | 1.07 µM and 0.379 µM | < 0.01 µM and 0.0101 µM | 0.0369 µM and 0.044 µM | 0.02 µM and 0.00681 µM | 0.266 µM and 0.365 µM | 0.0131 µM and 0.0102 µM | 0.0774 µM and 0.038 µM | < 0.0131 µM and 0.0156 µM | 0.424 µM and 0.439 µM
COc1ccc(C2=CC(c3ccc(Oc4ccnc5cc(Cl)ccc45)c(OC)c3)c3c(nc(OC)[nH]c3=O)N2)cc1 (stereo not given) | 6.42 µM | > 100 µM | 21.8 µM | > 100 µM | 3.99 µM | > 100 µM | 6.46 µM | > 100 µM | 15.5 µM | > 100 µM | 3.18 µM | 47.2 µM | 31.6 µM | > 100 µM | 2.91 µM | 64.6 µM | 7.28 µM | 34.1 µM | 9.03 µM | > 100 µM
CN(C)CCNC(=O)c1cccc2cc([N+](=O)[O-])ccc12 | 0.989 µM and 0.414 µM | 3.77 µM and 2.66 µM | – | 0.471 µM | – | 13.8 µM | 2.36 µM and 0.332 µM | 11.7 µM and 2.26 µM | – | 16.4 µM | – | 2.88 µM | – | – | – | 0.132 µM | 1.65 µM and 0.213 µM | 4.92 µM and 0.774 µM | 1.69 µM and 0.211 µM | 6.68 µM and 0.758 µM
CCc1nc(-n2c(CC)nc3ccccc3c2=O)nc(N)c1-c1ccc(Cl)cc1 | 12.6 µM | > 100 µM | > 100 µM | > 100 µM | > 100 µM | > 100 µM | 31.8 µM | > 100 µM | 22.3 µM | > 84.3 µM | > 100 µM | > 100 µM | > 100 µM | > 100 µM | > 100 µM | > 100 µM | 6.84 µM | > 100 µM | 10.9 µM | > 100 µM
COc1cc(-c2cc(-c3nc4cc(Cl)c(Cl)cc4[nH]3)[nH]n2)cc(OC)c1OC | 3.04 µM | 11.5 µM | 3.17 µM | 13.5 µM | 2.84 µM | 8.02 µM | 4.05 µM | 15.4 µM | 3.81 µM | 12.9 µM | 2.02 µM | 5.66 µM | – | – | 3.89 µM | 20.6 µM | 1.56 µM | 3.24 µM | 3.4 µM | 13 µM
C[C@@H]1[C@H]2[C@H](C=C3[C@@H]4CC[C@H]5Cc6nc7c(nc6C[C@]5(C)[C@H]4C[C@@H](O)[C@@]32C)C[C@@H]2CC[C@H]3C4=C[C@@H]5O[C@@]6(CC[C@](C)(CO)O6)[C@@H](C)[C@@]5(O)[C@@]4(C)[C@H](O)C[C@@H]3[C@@]2(C)C7)O[C@]12CCC(C)(C)O2 | 0.0698 µM | 0.259 µM | 0.0706 µM | 0.333 µM | 0.338 µM | 15 µM | 5.1 µM | 31.8 µM | – | – | 2.26 µM | 11.8 µM | 0.9 µM | 18 µM | 0.322 µM | 2.9 µM | 0.783 µM | 5.2 µM | 1.61 µM | 23.1 µM
COc1ccc2[nH]c3c(C)c4cc[n+](C)cc4c(C)c3c2c1 | 0.107 µM | – | 1.54 µM | 16.5 µM [middle of 4 runs] | 0.733 µM | 5.18 µM and 4.97 µM and 1.79 µM | 0.246 µM | – | – | – | 0.167 µM and 0.0825 µM | – | 4.87 µM | 13.8 µM [middle of 4 runs] | – | 49.1 µM and > 209 µM | 2.07 µM | 7.15 µM [middle of 4 runs] | 0.325 µM | 3.3 µM [middle of 4 runs]
O=S(=O)(CC#CCCCOCC#Cc1ccccc1C#CCS(=O)(=O)c1ccccc1)c1ccccc1 | 29.8 µM | 91.3 µM | – | – | 19 µM | 34.8 µM | 11.6 µM | 30 µM | 13.3 µM | 30.8 µM | 14.6 µM | 33 µM | 23 µM | 47.9 µM | 4.16 µM | 21.8 µM | 15.3 µM | 31.8 µM | 15.5 µM | 44.8 µM
